# Laboratory results published in US20160022684A1, “BET INHIBITOR AND BRUTON'S TYROSINE KINASE INHIBITOR COMBINATIONS” (Pharmacyclics LLC, priority 2014, published 2016).
# Experiments:
# Type in all cases: cell-based
# U-2932 = assay: Combined drug treatment cell viability (CellTiter-Glo), ibrutinib with BET inhibitors, U-2932; conditions: U2932, JQ1 20 nM, 3 days
# Procedure: (§1) The DLBCL cell lines used during the experiments included TMD8, OCI-LY3, OCI-LY10, U-2932 and SU-DHL-2. DLBCL cells at either 1×10^4 cells or 2×10^4 cells were plated onto each well of a 96-W plate (Table 1). […] The 96-W plate was then incubated for 3 days. Cell viability was examined using a CellTiter-Glo assay. A 40 μL of CellTiter-Glo reagent was added directly into each well of the 96-W plate. The plate was then shaken on a Shaker ([…]) at speed 5 for 10-20 min at room temperature. Next, about 100 μL of the mixed medium was transferred to a white, non-transparent, flat bottom 96-W plate for assaying. […] Measurements were taken at room temperature. CellTiter-Glow reagents were thawed prior to use. Cells pre-plated onto a second 96-W plate and incubated at room temperature for 30 minutes were used for calibration purposes. […] CI is a quantitative description of the interaction property of the combination of two drugs.
# SU-DHL-2 = assay: Combined drug treatment cell viability (CellTiter-Glo), ibrutinib with BET inhibitors, SU-DHL-2; conditions: JQ1 100 nM, 3 days
# Procedure: as §1
# OCI-LY10 = assay: Combined drug treatment cell viability (CellTiter-Glo), ibrutinib with BET inhibitors, OCI-LY10; conditions: OCI-LY-10, JQ1 1 uM, 3 days
# Procedure: as §1
# TMD8 = assay: Combined drug treatment cell viability (CellTiter-Glo), ibrutinib with BET inhibitors, TMD8; conditions: JQ1 20 nM, 3 days
# Procedure: as §1
# OCI-LY3 = assay: Combined drug treatment cell viability (CellTiter-Glo), ibrutinib with BET inhibitors, OCI-LY3; conditions: OCI-LY-3, JQ1 1 uM, 3 days
# Procedure: as §1
# [1] = ibrutinib 0 nM (BET inhibitor alone): I-BET151 5 uM, OTX015 1 uM
# [2] = ibrutinib 0.0256 nM with I-BET151 5 uM, OTX015 1 uM or medium alone (row)
# [3] = ibrutinib 0.64 nM with I-BET151 5 uM, OTX015 1 uM or medium alone (row)
# [4] = ibrutinib 3.2 nM with I-BET151 5 uM, OTX015 1 uM or medium alone (row)
# [5] = ibrutinib 16 nM with I-BET151 5 uM, OTX015 1 uM or medium alone (row)
# [6] = ibrutinib 80 nM with I-BET151 5 uM, OTX015 1 uM or medium alone (row)
# [7] = ibrutinib 400 nM with I-BET151 5 uM, OTX015 1 uM or medium alone (row)
# [8] = ibrutinib 2000 nM with I-BET151 5 uM, OTX015 1 uM or medium alone (row)
# [9] = ibrutinib 10000 nM with I-BET151 5 uM, OTX015 1 uM or medium alone (row)
# [10] = ibrutinib […] with I-BET151 5 uM, OTX015 1 uM or medium alone (row)
compound,measurement,setting,value
Cc1sc2c(c1C)C(c1ccc(Cl)cc1)=N[C@@H](CC(=O)Nc1ccc(O)cc1)c1nnc(C)n1-2 [OTX015],luminescent signals,"U-2932; ibrutinib 0 nM (BET inhibitor alone): I-BET151 200 nM, OTX015 50 nM (Table 2)",55416.46
same,luminescent signals,"U-2932; ibrutinib 0.0256 nM with I-BET151 200 nM, OTX015 50 nM (Table 2) or medium alone (row)",53427.04
same,luminescent signals,"U-2932; ibrutinib 0.64 nM with I-BET151 200 nM, OTX015 50 nM (Table 2) or medium alone (row)",50299.31
same,luminescent signals,"U-2932; ibrutinib 3.2 nM with I-BET151 200 nM, OTX015 50 nM (Table 2) or medium alone (row)",45013.52
same,luminescent signals,"U-2932; ibrutinib 16 nM with I-BET151 200 nM, OTX015 50 nM (Table 2) or medium alone (row)",49095.12
same,luminescent signals,"U-2932; ibrutinib 80 nM with I-BET151 200 nM, OTX015 50 nM (Table 2) or medium alone (row)",44565.57
same,luminescent signals,"U-2932; ibrutinib 400 nM with I-BET151 200 nM, OTX015 50 nM (Table 2) or medium alone (row)",48570.75
same,luminescent signals,"U-2932; ibrutinib 2000 nM with I-BET151 200 nM, OTX015 50 nM (Table 2) or medium alone (row)",44022.77
same,luminescent signals,"U-2932; ibrutinib 10000 nM with I-BET151 200 nM, OTX015 50 nM (Table 2) or medium alone (row)",33140.26
same,luminescent signals,"U-2932; ibrutinib […] with I-BET151 200 nM, OTX015 50 nM (Table 2) or medium alone (row)",51182.03
same,luminescent signals,"SU-DHL-2; ibrutinib 0 nM (BET inhibitor alone): I-BET151 2 uM, OTX015 1 uM (Table 2)",945.707
same,luminescent signals,"SU-DHL-2; ibrutinib 0.0256 nM with I-BET151 2 uM, OTX015 1 uM (Table 2) or medium alone (row)",1016.636
same,luminescent signals,"SU-DHL-2; ibrutinib 10000 nM with I-BET151 2 uM, OTX015 1 uM (Table 2) or medium alone (row)",782.836
same,luminescent signals,"SU-DHL-2; ibrutinib […] with I-BET151 2 uM, OTX015 1 uM (Table 2) or medium alone (row)",1087.564
same,luminescent signals,OCI-LY10; [1],45142.68
same,luminescent signals,OCI-LY10; [2],42481.51
same,luminescent signals,OCI-LY10; [3],40790.66
same,luminescent signals,OCI-LY10; [4],33872.14
same,luminescent signals,OCI-LY10; [5],29764.67
same,luminescent signals,OCI-LY10; [6],25880.72
same,luminescent signals,OCI-LY10; [7],25433.68
same,luminescent signals,OCI-LY10; [8],24952.47
same,luminescent signals,OCI-LY10; [9],23945.32
same,luminescent signals,OCI-LY10; [10],42647.18
same,luminescent signals,"TMD8; ibrutinib 0 nM (BET inhibitor alone): I-BET151 200 nM, OTX015 100 nM",47319.47
same,luminescent signals,"TMD8; ibrutinib 0.0256 nM with I-BET151 200 nM, OTX015 100 nM or medium alone (row)",11004.22
same,luminescent signals,"TMD8; ibrutinib 0.64 nM with I-BET151 200 nM, OTX015 100 nM or medium alone (row)",9847.13
same,luminescent signals,"TMD8; ibrutinib 3.2 nM with I-BET151 200 nM, OTX015 100 nM or medium alone (row)",9773.329
same,luminescent signals,"TMD8; ibrutinib 16 nM with I-BET151 200 nM, OTX015 100 nM or medium alone (row)",9272.538
same,luminescent signals,"TMD8; ibrutinib 80 nM with I-BET151 200 nM, OTX015 100 nM or medium alone (row)",9472.854
same,luminescent signals,"TMD8; ibrutinib 400 nM with I-BET151 200 nM, OTX015 100 nM or medium alone (row)",9301.531
same,luminescent signals,"TMD8; ibrutinib 2000 nM with I-BET151 200 nM, OTX015 100 nM or medium alone (row)",10927.78
same,luminescent signals,"TMD8; ibrutinib 10000 nM with I-BET151 200 nM, OTX015 100 nM or medium alone (row)",7055.879
same,luminescent signals,"TMD8; ibrutinib […] with I-BET151 200 nM, OTX015 100 nM or medium alone (row)",11191.36
same,luminescent signals,OCI-LY3; [1],12422.08
same,luminescent signals,OCI-LY3; [2],14387.47
same,luminescent signals,OCI-LY3; [3],13925.64
same,luminescent signals,OCI-LY3; [4],14043.72
same,luminescent signals,OCI-LY3; [5],13776.07
same,luminescent signals,OCI-LY3; [6],14290.38
same,luminescent signals,OCI-LY3; [7],15615.51
same,luminescent signals,OCI-LY3; [8],15793.94
same,luminescent signals,OCI-LY3; [9],14418.95
same,luminescent signals,OCI-LY3; [10],12918.02
